From ChEMBL document CHEMBL2429714, “Synthesis and analgesic activity of monoterpenoid-derived 2-aryl-4,4,7-trimethyl-4a,5,8,8a-tetrahydro-4H-benzo[d][1,3]dioxin-8-ols” (Med Chem Res, 2013) come the findings set out here.

The test system of data set [1] is Mus musculus. Kind of data set: Analgesic activity in po dosed albino mouse assessed as protection against acetic acid-induced writhing administered 1 hr prior to prior to acetic acid challenge measured at 5 to 8 mins. Type of data set: functional. In general terms: In writhing tests, fewer writhes than in controls are read as antinociception.
Data set [2] deals with Mus musculus. Kind of data set: Analgesic activity in albino mouse assessed as inhibition of abdominal convulsion at 10 mg/kg, po administered 1 hr prior to acetic acid challenge measured at 5 to 8 mins by acetic acid-induced writhing test relative to control. The format is functional. Particulars: Abdomen.
Data set [3] relates to Mus musculus. Kind of data set: Analgesic activity in albino mouse assessed as protection against thermal-induced paw licking or jumping behaviour at 10 mg/kg, po administered 1 hr prior to testing by hot plate test relative to control. Type of data set: functional. In general terms: In hot-plate and tail-flick tests a longer latency is read as antinociception.
Data set [4] can be described thus: Toxicity in po dosed albino mouse. Type of data set: organism-based. The conditions noted are these: in vivo.

Each structure is given as a SMILES string.

Consider `CC1=CC[C@@H]2[C@@H](O[C@H](c3ccc(Cl)cc3)OC2(C)C)[C@@H]1O`, for which the ED50 (usually the dose that gives a 50% effect, or the effect in half of the subjects) in data set [1] was 4.5 mg/kg. For the same compound, the inhibition in vivo (as a rule, how much of the control response was suppressed) at 10 mg/kg in data set [2] came out at 88%. Further, the Activity in data set [3] is 8%.
Take `CC1=CC[C@@H]2[C@@H](O[C@H](c3ccc(F)cc3)OC2(C)C)[C@@H]1O`: in data set [4], the LD50 (usually the dose expected to kill half of the subjects tested) worked out at 1000 mg/kg. Besides, the inhibition in vivo at 10 mg/kg in data set [2] came out at 40%. Besides, in data set [3], the Activity turned out to be 0%.
As to `CC1=CC[C@@H]2[C@@H](O[C@H](c3ccc(Br)cc3)OC2(C)C)[C@@H]1O`, in data set [2], the inhibition in vivo at 10 mg/kg was 33%. Besides, the Activity in data set [3] came to 33%.
Regarding `CC1=CC[C@@H]2[C@@H](O[C@H](c3ccc([N+](=O)[O-])cc3)OC2(C)C)[C@@H]1O`, the inhibition in vivo at 10 mg/kg in data set [2] came to 65%. Further, in data set [3], the Activity worked out at 84%.
`CC1=CC[C@@H]2[C@@H](O[C@H](c3cccc(Cl)c3)OC2(C)C)[C@@H]1O`: in data set [2], the inhibition in vivo at 10 mg/kg turned out to be 27%. Further, in data set [3], the Activity was determined as 36%.
`CC1=CC[C@@H]2[C@@H](O[C@H](c3ccc(Cl)c(Cl)c3)OC2(C)C)[C@@H]1O`: the inhibition in vivo at 10 mg/kg in data set [2] came to 14%. For the same compound, the Activity in data set [3] is listed as 36%.
With `CC1=CC[C@@H]2[C@@H](O[C@H](c3cccc(F)c3)OC2(C)C)[C@@H]1O`, in data set [2], the inhibition in vivo at 10 mg/kg is 40%. In data set [3], the Activity is reported as 0%.
With `CC1=CC[C@@H]2[C@@H](O[C@H](c3ccc(C(F)(F)F)cc3)OC2(C)C)[C@@H]1O`, in data set [2], the inhibition in vivo at 10 mg/kg was found to be 52%. In addition, the Activity in data set [3] turned out to be 30%.
As to `CC1=CC[C@@H]2[C@@H](O[C@H](c3cccc(Cl)c3)CC2(C)O)[C@@H]1O` (mixture of isomers), the inhibition in vivo at 10 mg/kg in data set [2] came to 26%. The Activity in data set [3] is recorded as 14%.
In the case of `O=C([O-])Cc1ccccc1Nc1c(Cl)cccc1Cl.[Na+]` [DICLOFENAC SODIUM], in data set [1], the ED50 was found to be 5 mg/kg. Besides, the inhibition in vivo at 10 mg/kg in data set [2] was found to be 90%. Further, in data set [3], the Activity is given as 64%.
